Source: ChEMBL document CHEMBL1201862, “PubChem BioAssay data set” (2004)
Active and inactive are the calls of the source.

Legend:
[1] = biological target: Disintegrin and metalloproteinase domain-containing protein 17 (Homo sapiens, UniProt P78536); assay: exosite inhibitors of ADAM17, dose response, biochemical (AID 743260)
[2] = biological target: T1, Corticotropin-releasing factor receptor 2/Corticotropin-releasing factor-binding protein (Homo sapiens, UniProt P24387+Q13324); assay: activators of CRF receptor 2 with binding protein – uHTS hits, confirmation (AID 602473); format: functional; conditions: read-out: EC50_Mean
T1 sequence (Q13324 whole entry): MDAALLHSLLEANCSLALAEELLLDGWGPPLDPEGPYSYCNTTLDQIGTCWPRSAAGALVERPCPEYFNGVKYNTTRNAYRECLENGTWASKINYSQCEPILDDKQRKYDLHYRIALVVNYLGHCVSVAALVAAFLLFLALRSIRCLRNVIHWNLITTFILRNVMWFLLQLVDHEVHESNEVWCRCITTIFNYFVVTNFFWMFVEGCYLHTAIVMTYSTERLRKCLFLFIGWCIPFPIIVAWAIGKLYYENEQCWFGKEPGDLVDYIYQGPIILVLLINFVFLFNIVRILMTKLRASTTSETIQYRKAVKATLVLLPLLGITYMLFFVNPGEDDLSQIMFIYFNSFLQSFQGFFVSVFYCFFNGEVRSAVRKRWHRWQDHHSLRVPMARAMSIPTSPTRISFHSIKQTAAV
T1 sequence (P24387 whole entry): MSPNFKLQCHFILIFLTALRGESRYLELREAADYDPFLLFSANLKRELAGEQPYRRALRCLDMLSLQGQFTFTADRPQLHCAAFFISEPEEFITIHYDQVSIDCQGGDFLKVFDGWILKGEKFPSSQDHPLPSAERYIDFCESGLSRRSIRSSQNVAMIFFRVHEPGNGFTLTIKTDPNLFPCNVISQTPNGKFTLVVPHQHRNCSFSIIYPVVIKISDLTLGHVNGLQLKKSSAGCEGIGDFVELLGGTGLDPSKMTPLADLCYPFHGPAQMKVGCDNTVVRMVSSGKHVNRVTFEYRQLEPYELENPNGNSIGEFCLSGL

[3] = ADAM10 protease inhibitors, dose response, selectivity assay for ADAM17 exosite inhibitor project, biochemical, FRET peptide substrate, recombinant human ADAM10 (AID 743259);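 also: ADAM10 enzyme cleaving a FRET peptide substrate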
[4] = biological target: T1, Corticotropin-releasing factor receptor 2/Corticotropin-releasing factor-binding protein; assay: Dose Response confirmation of uHTS hits for small molecule antagonists of the CRF-binding protein and CRF-R2 receptor complex.; format: functional; conditions: read-out: IC50_Mean
[5] = miR-122 activators in hepatoma reporter cells, dose response, cell-based, Huh7 psiCHECK-miR122, Renilla luciferase, cherry-picked (AID 651956); format: functional;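 also: huh7 hepatoma cells stably carrying a psiCHECK-2 miR-122 sensor plasmid; renilla luciferase signal reporting endogenous miR-122 activity after 48 h compound exposure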
[6] = HEK293T cytotoxicity, dose response, cytotoxicity control for miR-122 modulator project, cell-based, inhibitor set, cherry-pick, set 2 (AID 720697); format: functional
[7] = IGROV1 ovarian cancer cell cytotoxicity, dose response, PAX8 inhibitor project, plate reader, dry powder samples (AID 743043); format: functional, cell-based; conditions: IGROV-1
[8] = cytotoxicity in OVCAR8 ovarian cancer cells, dose response, PAX8 project, cell-based, plate reader, dry powder samples (AID 743197); format: functional; conditions: OVCAR-8
Paired box protein Pax-8 = Paired box protein Pax-8 (Homo sapiens, UniProt Q06710); assay: inhibitors of PAX8-driven TPO luciferase reporter, dose response, RMG-I cells, cherry-pick (AID 687027); format: functional, cell-based;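 also: luciferase reporter driven by Pax8 target thyroperoxidase promoter measured by SteadyGlo luminescence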
Chain of Paired box protein Pax-8 (Q06710 whole entry): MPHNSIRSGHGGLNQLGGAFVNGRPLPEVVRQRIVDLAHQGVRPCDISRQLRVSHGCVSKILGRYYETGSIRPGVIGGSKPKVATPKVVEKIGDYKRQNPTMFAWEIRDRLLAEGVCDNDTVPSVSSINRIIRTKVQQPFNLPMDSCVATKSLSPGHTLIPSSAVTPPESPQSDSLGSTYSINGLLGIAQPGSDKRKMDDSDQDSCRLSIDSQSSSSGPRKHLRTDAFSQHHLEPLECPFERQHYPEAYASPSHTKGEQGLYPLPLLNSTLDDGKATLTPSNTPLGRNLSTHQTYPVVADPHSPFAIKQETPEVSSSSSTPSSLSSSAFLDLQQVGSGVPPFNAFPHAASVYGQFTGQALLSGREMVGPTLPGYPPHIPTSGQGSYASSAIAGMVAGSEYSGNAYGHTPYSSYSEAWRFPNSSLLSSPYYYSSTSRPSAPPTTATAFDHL

[9] = IOSE-T80 ovarian epithelial cell cytotoxicity, dose response, cytotoxicity control for PAX8 inhibitor project, plate reader, dry powder samples (AID 743045); format: functional, cell-based
[10] = A2780 ovarian cancer cell cytotoxicity, dose response, cytotoxicity control, plate reader, dry powder samples (AID 743046); format: functional, cell-based
[11] = NIH:OVCAR-3 ovarian cancer cell cytotoxicity, dose response, PAX8 inhibitor project, plate reader, dry powder samples (AID 743044); format: functional, cell-based
[12] = MC4R antagonists, dose response, counter-screen for LGR2 antagonist project, cell-based, plate reader, cherry pick (AID 743444); format: functional;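 also: transfected HEK 293 cells stimulated with alpha-MSH peptide; potency of inhibitors of the alpha-MSH evoked signal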
[13] = LGR2 antagonists, dose response, cell-based, HEK293, CRE-luciferase reporter, cherry pick (AID 743342); format: functional
[14] = HEK293 cell cytotoxicity, dose response, cytotoxicity control, plate reader, cherry-picked samples (AID 743446); format: functional, cell-based
[15] = A549 cell cytotoxicity, dose response, cytotoxicity control, plate reader, cherry-pick, antagonist series (AID 743412); format: functional, cell-based
[16] = HepG2 cell cytotoxicity, dose response, cytotoxicity control, plate reader, cherry-pick, antagonist series (AID 743416); format: functional, cell-based
[17] = inhibitors of SNCA 5'UTR-driven reporter translation, confirmation, H4 neuroglioma cells, luminescence (AID 1988); format: functional, cell-based
[18] = Luminescence Cell-Based Dose Response HTS to Identify Inhibitors of 5'UTR Stem-Loop Driven Prion Protein mRNA Translation in H4 Neuroglioblastoma Cells. [Related pubchem assays: 1827 (Project Summary), 1813 (Primary HTS)]; format: functional
[19] = inhibitors of firefly luciferase expression or activity, dose response, H4 neuroglioma cells, luminescence (AID 1990); format: functional, cell-based

Chain of Disintegrin and metalloproteinase domain-containing protein 17 (P78536 whole entry, the tested form may be a part): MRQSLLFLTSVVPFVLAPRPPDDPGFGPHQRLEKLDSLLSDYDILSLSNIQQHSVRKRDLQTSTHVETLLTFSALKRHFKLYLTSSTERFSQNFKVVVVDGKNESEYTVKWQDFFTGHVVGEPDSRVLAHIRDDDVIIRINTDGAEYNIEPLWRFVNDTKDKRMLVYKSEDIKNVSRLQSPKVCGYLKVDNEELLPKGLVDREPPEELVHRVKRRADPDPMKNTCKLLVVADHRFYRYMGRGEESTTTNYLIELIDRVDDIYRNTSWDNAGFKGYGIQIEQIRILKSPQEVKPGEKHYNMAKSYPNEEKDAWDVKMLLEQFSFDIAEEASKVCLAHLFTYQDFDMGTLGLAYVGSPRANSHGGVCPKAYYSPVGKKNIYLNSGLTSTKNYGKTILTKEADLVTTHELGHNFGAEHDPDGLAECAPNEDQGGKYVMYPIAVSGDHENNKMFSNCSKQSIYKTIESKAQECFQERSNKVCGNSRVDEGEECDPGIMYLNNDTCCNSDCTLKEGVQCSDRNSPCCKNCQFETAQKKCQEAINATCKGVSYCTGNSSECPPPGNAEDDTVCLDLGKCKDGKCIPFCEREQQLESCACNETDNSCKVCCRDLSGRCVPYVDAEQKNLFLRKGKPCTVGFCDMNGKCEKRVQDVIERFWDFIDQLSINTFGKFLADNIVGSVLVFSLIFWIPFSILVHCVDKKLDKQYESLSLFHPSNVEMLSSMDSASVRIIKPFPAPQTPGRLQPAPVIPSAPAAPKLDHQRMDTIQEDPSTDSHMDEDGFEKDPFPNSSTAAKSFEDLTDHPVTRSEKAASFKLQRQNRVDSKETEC

Cc1cc2oc(=O)cc(-c3ccccc3)c2c(C)c1-c1ccc(O)cc1
IC50 [1]: > 69.5 µM (inactive) | EC50 [2]: > 53 µM (inactive) | IC50 [3]: > 69.5 µM (inactive) | IC50 [4]: > 47.1 µM (inactive)

CC(=O)N(C)C[C@H]1Oc2cc(/C=C/c3ccccc3)ccc2S(=O)(=O)N([C@@H](C)CO)C[C@H]1C
AC50 [5]: 26.9 µM (active) | AC50 [6]: 0.451 µM (active)

C[C@@H]1CCCCO[C@@H](CN(C)Cc2ccc(Cl)c(Cl)c2)[C@H](C)CN([C@@H](C)CO)C(=O)c2cc(NC(=O)CCC(F)(F)F)ccc2O1
AC50 [7]: 21.9 µM (active) | AC50 [8]: 17.1 µM (active) | AC50 (Paired box protein Pax-8): 9.32 µM (active) | AC50 [9]: 23.4 µM (active) | AC50 [10]: 27.3 µM (active) | AC50 [11]: 16.1 µM (active)

C[C@H](CO)N1C[C@H](C)[C@H](CN(C)C(=O)Nc2cccc3ccccc23)OCCCC[C@H](C)Oc2ccc(NC(=O)NC3CCCCC3)cc2C1=O
AC50 [12]: 45.6 µM (active) | AC50 [13]: 4.13 µM (active)

C[C@@H]1CN([C@@H](C)CO)C(=O)c2cc(NC(=O)c3ccncc3)ccc2O[C@@H](C)CCCCO[C@H]1CN(C)C(=O)Nc1cccc2ccccc12
AC50 [12]: 9.74 µM (active) | AC50 [14]: 17.1 µM (active) | AC50 [15]: 14.3 µM (active) | AC50 [13]: 2.91 µM (active) | AC50 [16]: 17.1 µM (active)

CCNC(=S)N/N=C/c1cn(Cc2ccccc2F)c2ccccc12
EC50 [17]: 19.7 µM (active) | EC50 [18]: 24.4 µM (active) | IC50 [1]: > 69.5 µM (inactive) | IC50 [3]: > 69.5 µM (inactive) | EC50 [19]: 15.9 µM (active)
